According to patent US8008299B2, “Urotensin II receptor antagonists” (Janssen Pharmaceutica, N.V., priority 2007, dated 2011):
Read-outs that look alike come from different tables or passages of the source.

Columns and labels:
[1] = biological target: T1, rat GPR14 (U-II receptor) (Rattus norvegicus, UniProt P49684); experiment: Rat UII Calcium Mobilization FLIPR Assay; type: cell-based; conditions: CHO cells transfected with rat GPR14; antagonist activity after 5 min incubation vs agonist (Ac)-CFWK(2-NaI)C-NH2 at 1 nM
T1 construct: expressed in transfected cells
T1 sequence (P49684 1-386): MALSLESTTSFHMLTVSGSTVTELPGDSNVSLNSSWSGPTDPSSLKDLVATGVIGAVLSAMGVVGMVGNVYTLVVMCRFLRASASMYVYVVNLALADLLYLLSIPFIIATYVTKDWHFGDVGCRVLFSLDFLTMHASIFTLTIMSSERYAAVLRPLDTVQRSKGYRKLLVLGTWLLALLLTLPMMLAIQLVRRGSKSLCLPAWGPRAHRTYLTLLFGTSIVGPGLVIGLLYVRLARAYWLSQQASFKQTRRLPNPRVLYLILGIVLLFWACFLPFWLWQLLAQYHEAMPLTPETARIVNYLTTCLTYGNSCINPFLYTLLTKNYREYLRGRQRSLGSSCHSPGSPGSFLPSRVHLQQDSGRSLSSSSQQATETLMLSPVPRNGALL
Procedure, shortened: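 CHO cells stably expressing rat U-II receptor, seeded 24 h before assay, were loaded with FLIPR calcium dye in HBSS/20 mM HEPES/0.1% BSA/2.5 mM probenecid, pH 7.4, for 1 h at 37° C. Calcium mobilization then read by FLIPR at 23° C.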

[2] = biological target: T2, UT receptors in HSMM (Human Skeletal Muscle Myoblasts) (Homo sapiens, UniProt Q9UKP6); experiment: Human Radioligand Binding Assay ((^125I)-U-II binding to intact HSMM)
T2 sequence (Q9UKP6 1-389): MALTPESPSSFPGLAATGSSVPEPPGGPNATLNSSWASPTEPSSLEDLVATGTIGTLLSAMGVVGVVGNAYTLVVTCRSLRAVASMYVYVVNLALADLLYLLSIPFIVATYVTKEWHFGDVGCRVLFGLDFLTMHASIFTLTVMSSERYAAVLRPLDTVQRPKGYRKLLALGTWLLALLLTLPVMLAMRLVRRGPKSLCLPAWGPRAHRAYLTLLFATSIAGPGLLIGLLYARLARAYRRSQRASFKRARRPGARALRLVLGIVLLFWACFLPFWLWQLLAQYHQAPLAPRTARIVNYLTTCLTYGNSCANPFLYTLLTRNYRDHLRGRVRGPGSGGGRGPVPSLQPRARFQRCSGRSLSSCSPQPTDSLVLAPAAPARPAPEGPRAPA

[3] = biological target: T3, Human UII (U-II receptor) in 6D9 human rhabdomyosarcoma cells (Homo sapiens, UniProt Q9UKP6); experiment: Human UII Calcium Mobilization Assay; type: cell-based; conditions: 6D9 human rhabdomyosarcoma cells, FLIPR TETRA, average; read-out: Human UII Ca+ Mobilization Average IC50
T3 construct: 6D9: isolated by dilution subcloning of RMS13 cells, ATCC® Number: CRL-2061; host or cells: 6D9 human rhabdomyosarcoma cells (subclone of RMS13)
T3 sequence (Q9UKP6 1-389): T2 sequence (Q9UKP6 1-389)

| SMILES | IC50 [1] | Ki [2] | IC50 [3] | Ki ([2]; read-out: Human UII Average Binding Ki, intact HSMM, 0.150 nM (^125I)-U-II, 3 h, 25° C.) |
| --- | --- | --- | --- | --- |
| CCN1CCN(c2cccc3c2CN([C@H](CCCNc2ccccc2)c2ccc(OC)c(OC)c2)C3=O)CC1 [Cpd 40, 2-[(1R)-1-(3,4-dimethoxy-phenyl)-4-phenylamino-butyl]-4-(4-ethyl-piperazin-1-yl)-2,3-dihydro-isoindol-1-one] | 10 nM | 75 nM | 370 nM | – |
| COc1ccc([C@@H](CCCOCc2ccccc2)N2Cc3c(cccc3N3CCNCC3)C2=O)cc1OC [Cpd 41, 2-[(1R)-4-benzyloxy-1-(3,4-dimethoxy-phenyl)-butyl]-4-piperazin-1-yl-2,3-dihydro-isoindol-1-one] | 22 nM | 165 nM | 450 nM | – |
| CCN1CCN(c2cccc3c2CN([C@H](CCCOCc2c(F)cccc2F)c2ccc(OC)c(OC)c2)C3=O)CC1 [Cpd 46, 2-[(1R)-4-(2,6-difluoro-benzyloxy)-1-(3,4-dimethoxy-phenyl)-butyl]-4-(4-ethyl-piperazin-1-yl)-2,3-dihydro-isoindol-1-one] | 7730 nM | > 300 nM | > 10000 nM | – |
| CCN1CCN(c2cccc3c2CN([C@H](CCCNc2ncccn2)c2ccc(OC)c(OC)c2)C3=O)CC1 [Cpd 48, 2-[(1R)-1-(3,4-dimethoxy-phenyl)-4-(pyrimidin-2-ylamino)-butyl]-4-(4-ethyl-piperazin-1-yl)-2,3-dihydro-isoindol-1-one] | 61 nM | 48 nM | 496 nM | – |
| CCN1CCN(c2cccc3c2CN([C@H](CCCNS(=O)(=O)c2cnc(C)n2C)c2ccc(OC)c(OC)c2)C3=O)CC1 [Cpd 49, 2,3-dimethyl-3H-imidazole-4-sulfonic acid {(4R)-4-(3,4-dimethoxy-phenyl)-4-[4-(4-ethyl-piperazin-1-yl)-1-oxo-1,3-dihydro-isoindol-2-yl]-butyl}-amide] | 2 nM | 13 nM | 64 nM | – |
| CCN1CCN(c2cccc3c2CN([C@H](CCCOCc2ccccc2F)c2ccc(OC)c(OC)c2)C3=O)CC1 [Cpd 51, 2-[(1R)-1-(3,4-dimethoxy-phenyl)-4-(2-fluoro-benzyloxy)-butyl]-4-(4-ethyl-piperazin-1-yl)-2,3-dihydro-isoindol-1-one] | 2550 nM | > 300 nM | > 10000 nM | – |
| CCN1CCN(c2cccc3c2CN([C@H](CCCNC(=O)c2ccncc2)c2ccc(OC)c(OC)c2)C3=O)CC1 [Cpd 54, N-{(4R)-4-(3,4-dimethoxy-phenyl)-4-[4-(4-ethyl-piperazin-1-yl)-1-oxo-1,3-dihydro-isoindol-2-yl]-butyl}-isonicotinamide] | 81 nM | 77 nM | 628 nM | – |
| CCN1CCN(c2cccc3c2CN([C@H](CCCNC(=O)c2nccn2C)c2ccc(OC)c(OC)c2)C3=O)CC1 [Cpd 56, 1-methyl-1H-imidazole-2-carboxylic acid {(4R)-4-(3,4-dimethoxy-phenyl)-4-[4-(4-ethyl-piperazin-1-yl)-1-oxo-1,3-dihydro-isoindol-2-yl]-butyl}-amide] | 79 nM | 125 nM | 699 nM | – |
| CCN1CCN(c2cccc3c2CN([C@H](CCCNC(=O)c2cn(C)cn2)c2ccc(OC)c(OC)c2)C3=O)CC1 [Cpd 57, 1-methyl-1H-imidazole-4-carboxylic acid {(4R)-4-(3,4-dimethoxy-phenyl)-4-[4-(4-ethyl-piperazin-1-yl)-1-oxo-1,3-dihydro-isoindol-2-yl]-butyl}-amide] | 245 nM | 49 nM | 913 nM | – |
| CCN1CCN(c2cccc3c2CN([C@H](CCCNC(=O)c2cncn2C)c2ccc(OC)c(OC)c2)C3=O)CC1 [Cpd 59, 3-methyl-3H-imidazole-4-carboxylic acid {(4R)-4-(3,4-dimethoxy-phenyl)-4-[4-(4-ethyl-piperazin-1-yl)-1-oxo-1,3-dihydro-isoindol-2-yl]-butyl}-amide] | 82 nM | > 300 nM | 1260 nM | – |
| CCN1CCN(c2cccc3c2CN([C@H](CCCNC(=O)c2c(C)n[nH]c2C)c2ccc(OC)c(OC)c2)C3=O)CC1 [Cpd 60, 3,5-dimethyl-1H-pyrazole-4-carboxylic acid {(4R)-4-(3,4-dimethoxy-phenyl)-4-[4-(4-ethyl-piperazin-1-yl)-1-oxo-1,3-dihydro-isoindol-2-yl]-butyl}-amide] | 16 nM | – | 130 nM | 11 nM |
| CCN1CCN(c2cccc3c2CN([C@H](CCCN(Cc2ccncc2)Cc2ccncc2)c2ccc(OC)c(OC)c2)C3=O)CC1 [Cpd 63, 2-[(1R)-4-(bis-pyridin-4-ylmethyl-amino)-1-(3,4-dimethoxy-phenyl)-butyl]-4-(4-ethyl-piperazin-1-yl)-2,3-dihydro-isoindol-1-one] | 7 nM | 8 nM | 20 nM | – |

Now from value to molecule, other results behind:

| IC50 [1] | Ki [2] | IC50 [3] | SMILES | Ki ([2]; read-out: Human UII Average Binding Ki, intact HSMM, 0.150 nM (^125I)-U-II, 3 h, 25° C.) |
| --- | --- | --- | --- | --- |
| 3600 nM | > 300 nM | > 10000 nM | CCN1CCC(C(c2ccc(OC)c(OC)c2)N2Cc3c(cccc3N3CCN(CC)CC3)C2=O)CC1 (stereo not drawn) [Cpd 42, 2-[(3,4-dimethoxy-phenyl)-(1-ethyl-piperidin-4-yl)-methyl]-4-(4-ethyl-piperazin-1-yl)-2,3-dihydro-isoindol-1-one] | – |
| 173 nM | > 300 nM | 2680 nM | CCN1CCN(c2cccc3c2CN(C(c2ccc(OC)c(OC)c2)C2CCN(Cc4ccccc4)CC2)C3=O)CC1 (stereo not drawn) [Cpd 43, 2-[(1-benzyl-piperidin-4-yl)-(3,4-dimethoxy-phenyl)-methyl]-4-(4-ethyl-piperazin-1-yl)-2,3-dihydro-isoindol-1-one] | – |
| 7330 nM | > 300 nM | 3060 nM | CCN1CCN(c2cccc3c2CN(C(c2ccc(OC)c(OC)c2)C2CCN(S(=O)(=O)c4cn(C)c(C)n4)CC2)C3=O)CC1 (stereo not drawn) [Cpd 44, 2-{(3,4-dimethoxy-phenyl)-[1-(1,2-dimethyl-1H-imidazole-4-sulfonyl)-piperidin-4-yl]-methyl}-4-(4-ethyl-piperazin-1-yl)-2,3-dihydro-isoindol-1-one] | – |
| 465 nM | > 300 nM | 3320 nM | CCN1CCN(c2cccc3c2CN(C(c2ccc(OC)c(OC)c2)C2CCN(S(=O)(=O)c4cccs4)CC2)C3=O)CC1 (stereo not drawn) [Cpd 45, 2-{(3,4-dimethoxy-phenyl)-[1-(thiophene-2-sulfonyl)-piperidin-4-yl]-methyl}-4-(4-ethyl-piperazin-1-yl)-2,3-dihydro-isoindol-1-one] | – |
| 1300 nM | > 300 nM | 6140 nM | CCN1CCN(c2cccc3c2CN([C@H](CCCOCc2ccccc2Cl)c2ccc(OC)c(OC)c2)C3=O)CC1 [Cpd 47, 2-[(1R)-4-(2-chloro-benzyloxy)-1-(3,4-dimethoxy-phenyl)-butyl]-4-(4-ethyl-piperazin-1-yl)-2,3-dihydro-isoindol-1-one] | – |
| 7 nM | 23 nM | 482 nM | CCN1CCN(c2cccc3c2CN([C@H](CCCOc2ccccc2)c2ccc(OC)c(OC)c2)C3=O)CC1 [Cpd 50, 2-[(1R)-1-(3,4-dimethoxy-phenyl)-4-phenoxy-butyl]-4-(4-ethyl-piperazin-1-yl)-2,3-dihydro-isoindol-1-one] | – |
| 53 nM | 56 nM | 278 nM | CCN1CCN(c2cccc3c2CN([C@H](CCCNS(=O)(=O)c2cn(C)cn2)c2ccc(OC)c(OC)c2)C3=O)CC1 [Cpd 53, 1-methyl-1H-imidazole-4-sulfonic acid {(4R)-4-(3,4-dimethoxy-phenyl)-4-[4-(4-ethyl-piperazin-1-yl)-1-oxo-1,3-dihydro-isoindol-2-yl]-butyl}-amide] | – |
| 81 nM | 109 nM | 449 nM | CCN1CCN(c2cccc3c2CN([C@H](CCCNS(N)(=O)=O)c2ccc(OC)c(OC)c2)C3=O)CC1 [Cpd 58, aminosulfonic acid {(4R)-4-(3,4-dimethoxy-phenyl)-4-[4-(4-ethyl-piperazin-1-yl)-1-oxo-1,3-dihydro-isoindol-2-yl]-butyl}-amide] | – |
| 69 nM | 29 nM | 858 nM | CCN1CCN(c2cccc3c2CN([C@H](CCCNC(=O)c2ccnnc2)c2ccc(OC)c(OC)c2)C3=O)CC1 [Cpd 61, pyridazine-4-carboxylic acid {(4R)-4-(3,4-dimethoxy-phenyl)-4-[4-(4-ethyl-piperazin-1-yl)-1-oxo-1,3-dihydro-isoindol-2-yl]-butyl}-amide] | – |
